# Counter-ions that a name gives are not always drawn.
# Biological target: T1, human 5-HT6 receptor (Homo sapiens, UniProt P50406)
# T1 construct: expressed in transfected cells
# Experiment: 5-HT6 receptor binding assay ([3H]-LSD competition)
# Details: membranes of NIH 3T3 cells stably expressing the human 5-HT6 gene; [3H]-LSD radioligand; IC50 converted to pKi by Cheng-Prusoff equation; read-out: pKi (affinity for the 5-HT6 receptor) (converted)
# Procedure: The ability of the compounds of the invention to interact with the 5-HT6 receptor is established in (competitive) binding studies to NIH 3T3 cells stably expressing the human 5-HT6 receptor.
# NIH 3T3 cells stably expressing the human 5-HT6 gene were grown at 37° C. in a 5% CO2 atmosphere in DMEM supplemented with 10% cosmic calf serum (Hyclone) and subcultured when confluent. Cells were harvested by trypsination (Sigma) and membranes prepared by homogenisation followed by centrifugation in […] Tris buffer (pH 7.4) containing […] magnesium sulphate and […] EDTA. Radioligand binding assays were performed in 96 well polystyrene deep well plates (Semat) in a final volume of 500 μl, consisting of 100 μl of competing drug, 100 μl of 10 nmole·L^−1 [^3H]-lysergic acid diethylamide (LSD) and 300 μl of diluted membrane expressing the 5-HT6 receptor. All test compounds were dissolved in DMSO (dimethyl-sulfoxide) at 10 mM and serially diluted is assay buffer to give a six-fold concentration range (between 0.01 nM and 100 μM). Non-specific binding was determined with 10 μM Methiothepin. Plates were incubated at room temperature for 90 minutes. The reactions were terminated by rapid filtration using a Packard harvester onto 96 well GF/B filter plates (Packerd Unifilter) presoaked with 0.3% w/N polyethyleneimine, washed 3 times with ice-cold assay buffer (1 ml), oven dried and 50 μl Microscint-20 added. The retained radioactivity was then determined using a scintillation counter.
# Data were analysed using standard curve fitting procedures (Graphpad: four parameter logistic equation) to produce IC50 values for active compounds (where IC50 is the concentration of test compound causing 50% inhibition of binding). IC50 values were conerted to pKi values using the Cheng-Prusoff equation 1 (Cheng, Y. and Prosoff, W. H., Biochem. Pharmacol. 22, 3099-3108, 1973).
# T1 sequence (P50406 whole entry): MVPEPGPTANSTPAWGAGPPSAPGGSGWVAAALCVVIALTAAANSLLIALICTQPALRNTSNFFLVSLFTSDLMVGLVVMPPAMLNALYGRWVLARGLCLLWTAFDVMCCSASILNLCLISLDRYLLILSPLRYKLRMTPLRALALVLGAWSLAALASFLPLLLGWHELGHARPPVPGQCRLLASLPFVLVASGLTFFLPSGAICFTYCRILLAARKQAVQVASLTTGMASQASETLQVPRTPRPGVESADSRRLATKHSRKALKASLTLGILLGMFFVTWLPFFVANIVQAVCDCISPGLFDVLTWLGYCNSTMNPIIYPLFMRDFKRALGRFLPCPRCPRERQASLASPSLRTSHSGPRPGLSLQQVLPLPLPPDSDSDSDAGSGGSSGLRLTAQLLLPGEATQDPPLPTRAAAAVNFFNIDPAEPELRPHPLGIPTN
row,SMILES,Ki
1,"CN1CCC(N(C)C(=O)C2CN(S(=O)(=O)c3cccc(C(F)(F)F)c3)c3ccccc32)CC1 (centres unmarked) [Example 39, 1-(3-Trifluoromethyl-benzenesulfonyl)-2,3-dihydro-1H-indole-3-carboxylic acid methyl-(1-methyl-piperidin-4-yl)-amide trifluoroacetate]",< 31.6 nM
2,"COc1ccc(S(=O)(=O)N2CC(C(=O)NCCC3CCCN3C)c3ccccc32)c2ccccc12 (centres unmarked) [Example 1, 1-(4-Methoxynaphthalene-1-sulfonyl)-2,3-dihydro-1H-indole-3-carboxylic acid [2-(1-methyl-pyrrolidin-2-yl)-ethyl]amide]",< 31.6 nM
3,"CN1CCC(N(C)C(=O)C2CN(S(=O)(=O)c3cccc(Br)c3)c3ccccc32)CC1 (centres unmarked) [Example 40, 1-(3-Bromo-benzenesulfonyl)-2,3-dihydro-1H-indole-3-carboxylic acid methyl-(1-methyl-piperidin-4-yl)-amide trifluoroacetate]",< 31.6 nM
4,"COc1ccc(S(=O)(=O)N2CC(C(=O)N3CCNCC3)c3ccccc32)c2ccccc12 (centres unmarked) [Example 17, [1-(4-Methoxynaphthalene-1-sulfonyl)-2,3-dihydro-1H-indol-3-yl]-piperazin-1-yl-methanone]",< 31.6 nM
5,"CN1CCC(N(C)C(=O)C2CN(S(=O)(=O)c3ccc4c(c3)CCO4)c3ccccc32)CC1 (centres unmarked) [Example 55, 1-(2,3-Dihydro-benzofuran-5-sulfonyl)-2,3-dihydro-1H-indole-3-carboxylic acid methyl-(1-methyl-piperidin-4-yl)-amide trifluoroacetate]",< 31.6 nM
6,"COc1ccc(S(=O)(=O)N2CC(C(=O)NC3CCCN(C)C3)c3ccccc32)c2ccccc12 (centres unmarked) [Example 2, 1-(4-Methoxynaphthalene-1-sulfonyl)-2,3-dihydro-1H-indole-3-carboxylic acid (1-methyl-piperidin-3-yl)amide]",< 31.6 nM
7,"COc1ccc(S(=O)(=O)N2CC(C(=O)NC3CCN(C)CC3)c3ccccc32)c2ccccc12 (centres unmarked) [Example 25, 1-(4-Methoxynaphthalene-1-sulfonyl)-2,3-dihydro-1H-indole-3-carboxylic acid (1-methyl-piperidin-4-yl)-amide]",< 31.6 nM
8,"CN1CCC(N(C)C(=O)C2CN(S(=O)(=O)c3ccc(OC(F)(F)F)cc3)c3ccccc32)CC1 (centres unmarked) [Example 42, 1-(4-Trifluoromethoxy-benzenesulfonyl)-2,3-dihydro-1H-indole-3-carboxylic acid methyl-(1-methyl-piperidin-4-yl)-amide trifluoroacetate]",< 31.6 nM
9,"CN1CCC(N(C)C(=O)C2CN(S(=O)(=O)c3ccc(C(F)(F)F)cc3)c3ccccc32)CC1 (centres unmarked) [Example 50, 1-(4-Trifluoromethyl-benzenesulfonyl)-2,3-dihydro-1H-indole-3-carboxylic acid methyl-(1-methyl-piperidin-4-yl)-amide trifluoroacetate]",< 31.6 nM
10,"CCN(CC)CCNC(=O)C1CN(S(=O)(=O)c2ccc(OC)c3ccccc23)c2ccccc21 (centres unmarked) [Example 24, 1-(4-Methoxynaphthalene-1-sulfonyl)-2,3-dihydro-1H-indole-3-carboxylic acid (2-diethylamino-ethyl)-amide]",< 31.6 nM
11,"CN1CCC(N(C)C(=O)C2CN(S(=O)(=O)c3cc(Cl)sc3Cl)c3ccccc32)CC1 (centres unmarked) [Example 51, 1-(2,5-Dichloro-thiophene-3-sulfonyl)-2,3-dihydro-1H-indole-3-carboxylic acid methyl-(1-methyl-piperidin-4-yl)-amide trifluoroacetate]",< 31.6 nM
12,"COc1ccc(S(=O)(=O)N2CC(C(=O)NC3CC4CCC(C3)N4C)c3ccccc32)c2ccccc12 (centres unmarked) [Example 31, 1-(4-Methoxynaphthalene-1-sulfonyl)-2,3-dihydro-1H-indole-3-carboxylic acid (8-methyl-8-aza-bicyclo[3.2.1]oct-3-yl)amide]",< 31.6 nM
13,"COc1ccc(S(=O)(=O)N2CC(C(=O)N(C)C3CCN(C)CC3)c3ccccc32)c2ccccc12 (centres unmarked) [Example 35, 1-(4-Methoxynaphthalene-1-sulfonyl)-2,3-dihydro-1H-indole-3-carboxylic acid methyl-(1-methyl-piperidin-4-yl)-amide]",< 31.6 nM

# Second part, the compound after the results:
row,Ki,SMILES
1,< 31.6 nM,"CN1CCC(N(C)C(=O)C2CN(S(=O)(=O)c3cccc4c(Cl)cccc34)c3ccccc32)CC1 (centres unmarked) [Example 71, 1-(5-Chloro-naphthalene-1-sulfonyl)-2,3-dihydro-1H-indole-3-carboxylic acid methyl-(1-methyl-piperidin-4-yl)-amide trifluoroacetate]"
2,< 31.6 nM,"CN1CCC(N(C)C(=O)C2CN(S(=O)(=O)c3csc4ccccc34)c3ccccc32)CC1 (centres unmarked) [Example 62, 1-(Benzo[b]thiophene-3-sulfonyl)-2,3-dihydro-1H-indole-3-carboxylic acid methyl-(1-methyl-piperidin-4-yl)-amide trifluoroacetate]"
3,< 31.6 nM,"CN1CCC(N(C)C(=O)C2CN(S(=O)(=O)c3ccc4ccccc4c3)c3ccccc32)CC1 (centres unmarked) [Example 58, 1-(Naphthalene-2-sulfonyl)-2,3-dihydro-1H-indole-3-carboxylic acid methyl-(1-methyl-piperidin-4-yl)-amide trifluoroacetate]"
4,< 31.6 nM,"COc1ccc(S(=O)(=O)N2CC(C(=O)N(C)C3CCN(C)CC3)c3ccccc32)cc1Br (centres unmarked) [Example 69, 1-(3-Bromo-4-methoxy-benzenesulfonyl)-2,3-dihydro-1H-indole-3-carboxylic acid methyl-(1-methyl-piperidin-4-yl)-amide trifluoroacetate]"
5,< 31.6 nM,"CN1CCC(N(C)C(=O)C2CN(S(=O)(=O)c3cccc(-c4ccccc4)c3)c3ccccc32)CC1 (centres unmarked) [Example 60, 1-(Biphenyl-3-sulfonyl)-2,3-dihydro-1H-indole-3-carboxylic acid methyl-(1-methyl-piperidin-4-yl)-amide trifluoroacetate]"
6,< 31.6 nM,"Cc1cc(S(=O)(=O)N2CC(C(=O)N(C)C3CCN(C)CC3)c3ccccc32)c(C(F)(F)F)o1 (centres unmarked) [Example 109, 1-(5-Methyl-2-trifluoromethyl-furan-3-sulphonyl)-2,3-dihydro-1H-indole-3-carboxylic acid methyl-(1-methyl-piperidin-4-yl)-amide]"
7,< 31.6 nM,"CN1CCC(N(C)C(=O)C2CN(S(=O)(=O)c3cccc4ccccc34)c3ccccc32)CC1 (centres unmarked) [Example 59, 1-(Naphthalene-1-sulfonyl)-2,3-dihydro-1H-indole-3-carboxylic acid methyl-(1-methyl-piperidin-4-yl)-amide trifluoroacetate]"
